In patent publication US6355677B1, “Adrenoleukodystrophy treatments and drug screening” (The Johns Hopkins University, priority 1998, dated 2002):
Entries after “also recorded” stand apart in the source; their conditions may differ.

What was measured:
[1] = test system: Pex11α; experiment: Semi-quantitative RT-PCR, mouse primary fibroblasts; format: cell-based; conditions: normal or X-ALD mouse fibroblasts, 10 day exposure to 5 mM; data not shown
Experimental: (§1) Total RNA from tissue culture cells (10^6-10^7 cells/sample) was isolated using TRizol Reagent™ (Life Technologies), treated with DNase I (100-200 units in 40 mM HC, 10mM NaC, 6 mM MgCl2, pH 7.3), incubated at 37° C. for 30 min, extracted with pheno/chloroform, and precipitated with isopropanol. cDNA was generated using MMLV reverse transcriptase (RT) (Life Technologies). PCR was done in the linear range of amplification (determined for each primerpair-cDNA combination). For each cDNA sample, a ‘cocktail’ was prepared, containing PCR buffer (Promega), 200 µM of each DNTP, 1.5 mM MgCl2, 250 ng cDNA, 0.25 U of Taq polymerase (Promega) and […]. The ‘cocktail’ was divided into separate tubes containing cDNA specific primers.
(§2) The PCR primers used are listed below. In the parentheses, h indicates human and m, mouse; this is followed by the gene name, product size and annealing temperature. For primer sequences, F is forward and R is reverse. […]

[2] = test system: PPARα; experiment: as above; format: cell-based; conditions: mouse X-ALD fibroblasts, 5 mM, 2 days
Experimental: as §1, §2

[3] = test system: human primary fibroblasts; experiment: Phytanic acid oxidation ([2,3-3H]-phytanic acid); format: cell-based; conditions: 5 mM, 10 days
Experimental: Phytanic acid oxidation occurs exclusively in the peroxisomal matrix and can therefore serve as a marker for peroxisomal function. […] SCP2 is a 15-kDa protein located exclusively in the peroxisomal matrix.
For VLCFA measurements, total lipids were extracted, converted to methyl esters, purified by TLC and subjected to capillary GC analysis as described. Duplicate assays were set up independently and were assayed on different days. C24:0 β-oxidation activity of human and mouse fibroblasts and human lymphoblastoid cells was determined by measuring their capacity to degrade [1-^14C]-C24:0 fatty acid (American Radiolabeled Chemicals, St. Louis, Mo.) to water-soluble products as described. Phytanic acid oxidation was measured as described. Cells were incubated with [2,3-^3H]-phytanic acid for 24 hours, and the release of ^3H-H2O to the aqueous medium was determined (activity in pmol/hr per mg protein).

[4] = test system: ΔF508-CFTR; conditions: nasal epithelia cells, homozygous or heterozygous ΔF508-CFTR; cited from earlier work
[5] = test system: acyl-CoA oxidase (AOX); experiment: Semi-quantitative RT-PCR, human primary fibroblasts; format: cell-based; conditions: 5 mM
Experimental: (§3) Semi-quantitative RT-PCR was done on the mRNA isolated from these cells (FIG. 1). […] In addition, the expression of acyl-CoA oxidase (AOX), the rate-limiting enzyme in VLCFA β-oxidation, was not affected. Although previous studies have reported that ALDR mRNA was not detectable in fibroblasts by either northern or RT-PCR analyses, those RT-PCR studies used about 66 ng of CDNA; we used about 250 ng of cDNA.
as §1
(§4) The PCR primers used are listed below. In the parentheses, h indicates human and m, mouse; this is followed by the gene name, product size and annealing temperature. For primer sequences, F is forward and R is reverse. (hALD, 249, 64° C.) F: 5′-[…]-3′, R: 5′-[…]-3′; (mALD, 526, 59° C.) F: 5′-[…]-3′, R: 5′-[…]-3′; (hPMP70, 405, 60° C.) F: 5′-[…]-3′, R: 5′-[…]-3′; (mPMP70, 405, 60° C.) F: 5′-TTr[…]-3′, R: 5′-[…]-3′; (hALDR, 312, 56° C.) F: 5-[…]-3′, R: 5′-[…]-3′; (mALDR, 711, 57° C.) F: 5′-[…]-3′, R: 5′-[…]-3′; (hPMP69, 319, 60° C.) F: 5′-[…]-3′, R: 5-[…]-3′; (hAOX, 405, 60° C.) F: 5′-[…]-3′, R: 5′[…]-3′; (mAOX, 247, 60° C.) F: 5′-[…]r[…]-3′, R: 5′-[…]-3′; (hPPARα, 347, 60° C.) F: 5-[…]r[…]rCC-3′, R: 5′-[…]-3′; (mFPPARa, 268, 60° C.) F: 5′-GATTr[…]-TGAGG-3, R: 5′-[…]-3′; (hPex11α 658, 55° C.) F: 5-[…]-3′, R: 5′-[…]-3′; (mpex11α, 720, 55° C.) F: 5′-[…]r[…]-3′, R: 5′-[…]-3′; (β-Actin, 460, 62° C.) F:5′-[…]-3′, R: 5′-[…]-3, (glyceraldehyde 3-phosphate dehydrogenase (GAPDH), 528, 62° C.) F: 5′-[…]-3, R: 5′-[…]-3′. β-Actin and GAPDH primers were used for both human and mouse analyses.

[6] = test system: PMP69; experiment: as above; format: cell-based; conditions: X-ALD or normal fibroblasts, 5 mM, 2 days
Experimental: as §3, §1, §4

[7] = test system: PMP70; experiment: as above; format: cell-based; conditions: X-ALD or normal fibroblasts, 5 mM, 2 days
Experimental: as §3, §1, §4

[8] = test system: ALDR mRNA; experiment: as above; format: cell-based; conditions: normal and X-ALD fibroblasts, 5 mM, 2 days, relative to β-actin
Experimental: as §3, §1, §4

[9] = test system: ALDP; experiment: as above; format: cell-based; conditions: normal fibroblasts, 5 mM, 2 days
Experimental: as §3, §1, §4

[10] = test system: acyl-CoA oxidase (AOX); experiment: Semi-quantitative RT-PCR, mouse primary fibroblasts; format: cell-based; conditions: 5 mM, 2 days
Experimental: as §3, §1, §4

[11] = test system: PMP70; experiment: as above; format: cell-based; conditions: X-ALD or normal fibroblasts, 5 mM, 2 days
Experimental: as §3, §1, §4

[12] = test system: ALDR mRNA; experiment: as above; format: cell-based; conditions: normal and X-ALD fibroblasts, 5 mM, 2 days, relative to GAPDH
Experimental: as §3, §1, §4

[13] = test system: ALDP; experiment: as above; format: cell-based; conditions: normal fibroblasts, 5 mM, 2 days
Experimental: as §3, §1, §4

## O=C(O)CCCc1ccccc1 [4-PBA, 4-Phenyl butyrate]
[1]
  Pex11α transcripts: undetectable
[2]
  PPARα expression: increased
[3]; X-ALD human primary fibroblasts
  Increase in phytanic acid oxidation: twofold
[3]; normal human primary fibroblasts
  Increase in phytanic acid oxidation: twofold
[4]
  Effect on ΔF508-CFTR: rescue of ΔF508-CFTR from premature degradation
[5]; 2 days
  AOX expression: unchanged; also recorded: not affected
[5]; 10 days
  AOX expression: remained unchanged
[6]
  PMP69 expression level: little, if any, effect
[7]
  PMP70 expression level: little, if any, effect
[8]
  ALDR mRNA level: substantially increased; also recorded: substantial increase
[9]
  ALDP expression level: little, if any, effect
[10]
  AOX expression: unchanged; also recorded: not affected
[11]
  PMP70 expression level: little, if any, effect
[12]
  ALDR mRNA level: substantially increased; also recorded: substantial increase
[13]
  ALDP expression level: little, if any, effect
